Results published in paper PMC11375794, “Discovery of new Hsp90–Cdc37 protein–protein interaction inhibitors: in silico screening and optimization of anticancer activity” (RSC Advances, 2024).

Assays:
[1] = system: MCF-7 breast cancer cell line; assay: MTS cell viability (antiproliferative) assay in MCF-7; assay type: cell-based; conditions: Homo sapiens, MCF7, 72 h, MTS assay, 72 hours, mean ± SD
leukemia cell line THP-1 = assay: MTS cell viability (antiproliferative) assay in THP-1; assay type: cell-based; conditions: mean ± SD; for THP-1 IC50: 72 hours; for IC50: Homo sapiens, THP-1, 72 hours
Procedure: Hormone-positive breast cancer cell line MCF-7 (ATCC-HTB-22; ATCC) was grown in Dulbecco's Modified Eagle's Medium (DMEM), while Ewing sarcoma cell line SK-N-MC (a kind gift from Beat Schäfer) and THP-1 (ATCC-TIB-202; ATCC) cells were grown in Roswell Park Memorial Institute (RPMI) 1640. The medium was supplemented with 10% heat-inactivated fetal bovine serum (Gibco, Thermo Fisher Scientific, Waltham, MA, USA), 100 U per mL penicillin, 100 μg per mL streptomycin, and 2 mM L-glutamine (all from Sigma-Aldrich, St. Louis, MO, USA). All cell lines were incubated at 37 °C in a 5% CO2 atmosphere.
The antiproliferative activity of the compounds was evaluated against MCF-7 (ATCC-HTB-22; ATCC), SK-N-MC (a kind gift from Beat Schäfer) and THP-1 (ATCC-TIB-202; ATCC) cancer cell lines using the MTS assay (Promega, Madison, WI, USA). Cells were seeded in 96-well plates at a density of 2 × 10^4 cells per mL in 100 μL of growth medium for THP-1 and were treated with compounds and controls directly, while 3 × 10^3 cells per mL for MCF-7 and SK-N-MC were seeded in 100 μL of growth medium and allowed to adhere overnight following the treatment. In all cases the cells were treated with respective newly prepared compounds, positive controls (17-DMAG for MCF-7 and SK-N-MC; PU-H71 for THP-1) and a vehicle control (0.5% DMSO). The incubation time after treatment was 72 hours, then CellTiter96® Aqueous One Solution Reagent (Promega, Madison, WI, USA) was added to each well. Following a 3 hours incubation, absorbance was measured at 492 nm using BioTek's Synergy™ 4 Hybrid Microplate Reader (Winooski, VT, USA). The measurements were performed in two biological repetitions and each time the experiment was performed in a triplicate. The IC50 values, representing the concentration of inhibitor required for half-maximal inhibition, are the average of three independent experiments and were calculated using GraphPad Prism 9.5.0 software (San Diego, CA, USA).

full-length Hsp90β = target: T1, full-length Hsp90β (Homo sapiens, UniProt P08238); assay: Microscale thermophoresis (MST) binding to Hsp90β; conditions: full-length Hsp90β, absence of Cdc37
T1 construct: For the protein expression of full-length Hsp90β, we received plasmids as a kind gift; made in house; host or cells: Escherichia coli strain Rosetta
T1 sequence (P08238 whole entry): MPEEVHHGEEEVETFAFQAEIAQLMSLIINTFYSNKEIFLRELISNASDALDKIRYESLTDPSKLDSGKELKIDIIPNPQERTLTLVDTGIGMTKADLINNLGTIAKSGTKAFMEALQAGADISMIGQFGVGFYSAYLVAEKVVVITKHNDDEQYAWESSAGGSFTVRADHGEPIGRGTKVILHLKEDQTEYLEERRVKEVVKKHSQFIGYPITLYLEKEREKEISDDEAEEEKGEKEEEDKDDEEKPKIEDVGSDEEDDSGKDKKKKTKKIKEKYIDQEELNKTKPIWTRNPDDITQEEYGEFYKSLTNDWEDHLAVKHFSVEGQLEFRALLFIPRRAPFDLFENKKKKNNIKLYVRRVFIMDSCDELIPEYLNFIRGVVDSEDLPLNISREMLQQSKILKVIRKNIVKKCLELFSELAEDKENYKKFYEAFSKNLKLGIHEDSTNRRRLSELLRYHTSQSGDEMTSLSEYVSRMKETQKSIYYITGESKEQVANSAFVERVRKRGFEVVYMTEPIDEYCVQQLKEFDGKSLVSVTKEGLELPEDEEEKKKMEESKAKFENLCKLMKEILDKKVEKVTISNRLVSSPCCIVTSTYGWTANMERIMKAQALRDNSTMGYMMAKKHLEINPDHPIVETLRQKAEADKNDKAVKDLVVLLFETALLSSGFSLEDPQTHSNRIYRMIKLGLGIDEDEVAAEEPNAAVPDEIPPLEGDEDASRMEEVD
Procedure: For the protein expression of full-length Hsp90β, we received plasmids as a kind gift from Dr Asta Zubriené at the Institute of Biotechnology, Vilnius University, Lithuania. Hsp90β, tagged with N-terminal 6×His-tag, was expressed in Escherichia coli strain Rosetta. The cells were cultured in LB media supplemented with kanamycin (50 μg mL^−1) and chloramphenicol (34 μg mL^−1) at 37 °C, and protein expression was initiated with 0.5 mM isopropyl β-D-1-thiogalactopyranoside (IPTG) when the OD600 reached 0.8. Following induction, the cells were incubated for 16 hours at 18 °C before being harvested by centrifugation. The cells were resuspended in a lysis buffer containing 40 mM potassium phosphate pH 8.0, 400 mM KCl, 10 mM imidazole, and protease inhibitors (Sigma), and then lysed by sonication. After centrifugation, the proteins were initially purified using a Ni^2+-affinity HisTrap column (GE Healthcare). Impurities were washed away with lysis buffer containing 20–40 mM imidazole, and Hsp90β was subsequently eluted with lysis buffer containing 300 mM imidazole. The purification process continued with size exclusion chromatography (SEC) using a Superdex-200 (16/600) column (GE Healthcare) and a running buffer of 50 mM Tris pH 7.5 at room temperature, 300 mM KCl. The purity of the fractions was confirmed by SDS-PAGE, and they were then concentrated. For the NMR experiments, Hsp90β was dialyzed against NMR buffer (50 mM potassium phosphate pD 7.5, 100 mM KCl, 2 mM DTT (98%, D10) in D2O) and subsequently frozen in liquid nitrogen.
(§1) The full-length Hsp90β was labeled using the Monolith His-Tag Labeling Kit RED-tris-NTA following the manufacturer's instructions (NanoTemper Technologies GmbH, Munich, Germany). The proteins were first diluted to a concentration of 8 nM in assay buffer (50 mM Tris–HCl, pH 7.4, containing 150 mM NaCl, 5% ethanol, and 10 mM MgCl2). To determine the Kd values, the proteins were mixed with the test compounds in a 1 : 1 ratio as stated in the manufacturers protocol. The final concentration of Hsp90β was 4 nM, with compounds added in the following ranges: 1000 μM to 5.86 μM for 8c; 312.5 μM to 0.15 μM for 13g and 125 μM to 3.91 μM for 1. Two independent Kd determinations were performed for compounds 8c and 13g. […] Next, Cdc37 (AR09008PUN, OriGene Technologies, Inc., Rockville, MD, USA) was acquired for the purpose of PPI inhibition evaluation between full-length Hsp90β and Cdc37. […] In all experiments the compounds were incubated with the proteins for 15 minutes in the dark at room temperature. The mixtures were then loaded into Monolith NT.115 Premium Capillaries (NanoTemper Technologies GmbH, Munich, Germany). Thermophoresis was induced at 1475 ± 15 nm and measured using a Monolith NT.115 pico instrument (NanoTemper Technologies GmbH, Munich, Germany). Measurements were conducted at ambient temperature (24–25 °C), with excitation power set to 20% and MST power set to 40%, and a laser on time of 5 seconds. To calculate the Kd values, the average fluorescence responses for each concentration were plotted against the logarithm of compound concentrate on using GraphPad Prism software (GraphPad Software, Inc., La Jolla, CA).

[2] = target: T2, full-length Hsp90β and Cdc37 (Homo sapiens, UniProt P08238); assay: MST PPI inhibition evaluation: Kd for Hsp90β in the presence of Cdc37; assay type: binding
T2 construct: host or cells: Escherichia coli strain Rosetta (Hsp90β)
T2 sequence (P08238 whole entry): as above
Procedure: as §1

Row | Compound | IC50 [1] [µM] | THP-1 IC50 (leukemia cell line THP-1) | IC50 (leukemia cell line THP-1) [µM] | Kd (full-length Hsp90β) [µM] | Kd ([2]; 0.5 μM Cdc37) [µM] | Kd ([2]; 1.0 μM Cdc37) [µM] | Kd ([2]; 2.0 μM Cdc37) [µM] | Kd (Hsp90β) in presence of Cdc37 ([2]; 1.0 μM Cdc37)
1 | CN(CCOc1ccccc1)C(=O)c1csc(Nc2cc(N3CCNCC3)ncn2)n1 [Compound 8c, N-Methyl-N-(2-phenoxyethyl)-2-((6-(piperazin-1-yl)pyrimidin-4-yl)amino)thiazole-4-carboxamide] | 20 ± 1.2 | retained some inhibitory activity | 33.9 ± 8.5 | 70.8 | 81.7 | 90.2 | 98.2 | –
2 | O=C(NCCOc1ccccc1)c1ccc(Nc2cc(N3CCNCC3)ncn2)cc1 [Compound 13g, N-(2-Phenoxyethyl)-4-((6-(piperazin-1-yl)pyrimidin-4-yl)amino)benzamide] | 19.3 ± 2 | retained some inhibitory activity | 41.5 ± 6.3 | 73.3 | – | – | – | too low for quantification
